Test results: paper PMC4463418, “The Effect of Hydrophobic Monoamines on Acid-Sensing Ion Channels ASIC1B” (Acta Naturae, 2015)

Legend:
Assay type in all cases: cell-based
ASIC1b [1] = molecular target: T1, ASIC1b (Rattus norvegicus, UniProt P55926); assay: whole-cell patch clamp, CHO cells, activation at pH […]
T1 construct: gene Asic1; homomeric rASIC1b (splice variant) expressed in CHO cells
T1 sequence (P55926 186-526 limits assumed): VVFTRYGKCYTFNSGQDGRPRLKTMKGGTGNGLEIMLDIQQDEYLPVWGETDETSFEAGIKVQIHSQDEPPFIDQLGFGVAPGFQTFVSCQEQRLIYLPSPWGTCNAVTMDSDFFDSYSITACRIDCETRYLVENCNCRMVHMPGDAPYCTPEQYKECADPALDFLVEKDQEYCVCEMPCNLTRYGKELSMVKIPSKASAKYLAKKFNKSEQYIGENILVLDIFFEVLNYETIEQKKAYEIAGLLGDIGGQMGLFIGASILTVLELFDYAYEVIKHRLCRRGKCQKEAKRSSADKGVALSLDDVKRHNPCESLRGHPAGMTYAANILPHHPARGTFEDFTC

ASIC1b [2] = molecular target: T1, ASIC1b; assay: whole-cell patch clamp, CHO cells, block at […], pH […]
ASIC1b [3] = molecular target: T1, ASIC1b; assay: whole-cell patch clamp, CHO cells, inhibition at […]

Nc1c2ccccc2nc2ccccc12 [9AA, 9-aminoacridine]
IC50 (ASIC1b [1]): 440 ± 20 µM

N=C(N)NC(=O)c1nc(Cl)c(N)nc1N [amiloride]
inhibition at 30 µM (ASIC1b [2]): 53 ± 7%

CC12CC3CC(C)(C1)CC(N)(C3)C2 [memantine]
inhibition at 1000 µM (ASIC1b [3]): 44 ± 16%
